Reference: ChEMBL document CHEMBL5303573, “Mapping human microbiome drug metabolism by gut bacteria and their genes” (Nature, 2019)

Assays:
[1] = The drug is tested on Clostridium symbiosum strain: ATCC14940 for biotransformation. The drug concentrations were measured before and after a 12-h incubation by liquid-chromatography-coupled mass spectrometry (LC–MS); conditions: 2 µM
[2] = The drug is tested on Alistipes indistinctus strain: DSM22520 for biotransformation. The drug concentrations were measured before and after a 12-h incubation by liquid-chromatography-coupled mass spectrometry (LC–MS); conditions: 2 µM
[3] = The drug is tested on Eubacterium rectale strain: ATCC33656 for biotransformation. The drug concentrations were measured before and after a 12-h incubation by liquid-chromatography-coupled mass spectrometry (LC–MS); conditions: agathobacter rectalis, 2 µM
[4] = bacteroides stercoris, 12 h, 2 µM
Description: The drug is tested on Bacteroides stercoris strain: ATCC43183 for biotransformation. The drug concentrations were measured before and after a 12-h incubation by liquid-chromatography-coupled mass spectrometry (LC–MS)

[5] = bacteroides intestinalis, 12 h, 2 µM
Description: The drug is tested on Bacteroides intestinalis strain: DSM17393 for biotransformation. The drug concentrations were measured before and after a 12-h incubation by liquid-chromatography-coupled mass spectrometry (LC–MS)

[6] = bacteroides fragilis, 12 h, 2 µM
Description: The drug is tested on Bacteroides fragilis strain: DS-208 for biotransformation. The drug concentrations were measured before and after a 12-h incubation by liquid-chromatography-coupled mass spectrometry (LC–MS)

[7] = The drug is tested on Bacteroides finegoldii strain: DSM17565 for biotransformation. The drug concentrations were measured before and after a 12-h incubation by liquid-chromatography-coupled mass spectrometry (LC–MS); conditions: 2 µM
[8] = The drug is tested on Bacteroides fragilis strain: ATCC43859 for biotransformation. The drug concentrations were measured before and after a 12-h incubation by liquid-chromatography-coupled mass spectrometry (LC–MS); conditions: 2 µM
[9] = bacteroides thetaiotaomicron, 12 h, 2 µM
Description: The drug is tested on Bacteroides thetaiotaomicron strain: VPI-5482 for biotransformation. The drug concentrations were measured before and after a 12-h incubation by liquid-chromatography-coupled mass spectrometry (LC–MS)

[10] = parabacteroides johnsonii, 12 h, 2 µM
Description: The drug is tested on Parabacteroides johnsonii strain: DSM18315 for biotransformation. The drug concentrations were measured before and after a 12-h incubation by liquid-chromatography-coupled mass spectrometry (LC–MS)

[11] = The drug is tested on Edwardsiella tarda strain: ATCC23685 for biotransformation. The drug concentrations were measured before and after a 12-h incubation by liquid-chromatography-coupled mass spectrometry (LC–MS); conditions: 2 µM
[12] = The drug is tested on Eubacterium hallii strain: DSM3353 for biotransformation. The drug concentrations were measured before and after a 12-h incubation by liquid-chromatography-coupled mass spectrometry (LC–MS); conditions: anaerobutyricum hallii, 2 µM
[13] = bacteroides fragilis, 12 h, 2 µM; remark: listed apart in the source
Description: The drug is tested on Bacteroides fragilis strain: NCTC 9343 for biotransformation. The drug concentrations were measured before and after a 12-h incubation by liquid-chromatography-coupled mass spectrometry (LC–MS)

[14] = The drug is tested on Odoribacter splanchnicus strain: fecal isolate for biotransformation. The drug concentrations were measured before and after a 12-h incubation by liquid-chromatography-coupled mass spectrometry (LC–MS); conditions: 2 µM
[15] = The drug is tested on Clostridium ramosum strain: DSM1402 for biotransformation. The drug concentrations were measured before and after a 12-h incubation by liquid-chromatography-coupled mass spectrometry (LC–MS); conditions: thomasclavelia ramosa, 2 µM
[16] = The drug is tested on Bifidobacterium ruminantium strain: fecal isolate for biotransformation. The drug concentrations were measured before and after a 12-h incubation by liquid-chromatography-coupled mass spectrometry (LC–MS); conditions: 2 µM
[17] = The drug is tested on Eubacterium ventriosum strain: ATCC27560 for biotransformation. The drug concentrations were measured before and after a 12-h incubation by liquid-chromatography-coupled mass spectrometry (LC–MS); assay type: ADME; parameters: dose 2 uM, timepoint 0 vs 12 hours; conditions: 2 µM
[18] = The drug is tested on Bacteroides fragilis strain: HMW615 for biotransformation. The drug concentrations were measured before and after a 12-h incubation by liquid-chromatography-coupled mass spectrometry (LC–MS); conditions: 2 µM
[19] = roseburia intestinalis, 12 h, 2 µM
Description: The drug is tested on Roseburia intestinalis strain: L1-82 for biotransformation. The drug concentrations were measured before and after a 12-h incubation by liquid-chromatography-coupled mass spectrometry (LC–MS)

[20] = The drug is tested on Parabacteroides merdae strain: ATCC43184 for biotransformation. The drug concentrations were measured before and after a 12-h incubation by liquid-chromatography-coupled mass spectrometry (LC–MS); conditions: 2 µM

Structure (SMILES): C[C@@H]1C[C@H]2[C@@H]3CCC4=CC(=O)C=C[C@]4(C)[C@@]3(F)[C@@H](O)C[C@]2(C)[C@@]1(O)C(=O)CO [DEXAMETHASONE]
- Bacterial Biotransformation [1]: Compound NOT metabolized
- Bacterial Biotransformation [2]: Compound NOT metabolized
- Bacterial Biotransformation [3]: Compound NOT metabolized
- Bacterial Biotransformation [4]: Compound metabolized
- Bacterial Biotransformation [5]: Compound NOT metabolized
- Bacterial Biotransformation [6]: Compound metabolized
- Bacterial Biotransformation [7]: Compound NOT metabolized
- Bacterial Biotransformation [8]: Compound metabolized
- Bacterial Biotransformation [9]: Compound metabolized
- Bacterial Biotransformation [10]: Compound metabolized
- Bacterial Biotransformation [11]: Compound NOT metabolized
- Bacterial Biotransformation [12]: Compound NOT metabolized

Structure (SMILES): NC(CO)(CO)CO.O=C(c1ccccc1)c1ccc2n1CCC2C(=O)O (configuration not stated) [KETOROLAC TROMETHAMINE]
- Bacterial Biotransformation [1]: Compound NOT metabolized
- Bacterial Biotransformation [2]: Compound NOT metabolized
- Bacterial Biotransformation [3]: Compound NOT metabolized
- Bacterial Biotransformation [13]: Compound metabolized
- Bacterial Biotransformation [14]: Compound NOT metabolized
- Bacterial Biotransformation [5]: Compound NOT metabolized
- Bacterial Biotransformation [15]: Compound NOT metabolized
- Bacterial Biotransformation [6]: Compound metabolized
- Bacterial Biotransformation [16]: Compound NOT metabolized
- Bacterial Biotransformation [8]: Compound metabolized
- Bacterial Biotransformation [17]: Compound NOT metabolized
- Bacterial Biotransformation [9]: Compound metabolized
- Bacterial Biotransformation [10]: Compound NOT metabolized

Structure (SMILES): OC(c1cc(C(F)(F)F)nc2c(C(F)(F)F)cccc12)C1CCCCN1 (configuration not stated) [MEFLOQUINE]
- Bacterial Biotransformation [1]: Compound NOT metabolized
- Bacterial Biotransformation [2]: Compound NOT metabolized
- Bacterial Biotransformation [3]: Compound NOT metabolized
- Bacterial Biotransformation [13]: Compound NOT metabolized
- Bacterial Biotransformation [4]: Compound NOT metabolized
- Bacterial Biotransformation [18]: Compound NOT metabolized
- Bacterial Biotransformation [5]: Compound NOT metabolized
- Bacterial Biotransformation [19]: Compound metabolized
- Bacterial Biotransformation [20]: Compound NOT metabolized
- Bacterial Biotransformation [7]: Compound NOT metabolized
- Bacterial Biotransformation [8]: Compound NOT metabolized
- Bacterial Biotransformation [17]: Compound NOT metabolized
- Bacterial Biotransformation [9]: Compound NOT metabolized
- Bacterial Biotransformation [10]: Compound NOT metabolized
- Bacterial Biotransformation [12]: Compound NOT metabolized

Structure (SMILES): COc1c2occc2cc2ccc(=O)oc12 [METHOXSALEN]
- Bacterial Biotransformation [1]: Compound metabolized
- Bacterial Biotransformation [2]: Compound NOT metabolized
- Bacterial Biotransformation [13]: Compound metabolized
- Bacterial Biotransformation [18]: Compound metabolized
- Bacterial Biotransformation [14]: Compound metabolized
- Bacterial Biotransformation [5]: Compound metabolized
- Bacterial Biotransformation [15]: Compound metabolized
- Bacterial Biotransformation [19]: Compound metabolized
- Bacterial Biotransformation [16]: Compound NOT metabolized
- Bacterial Biotransformation [7]: Compound metabolized
- Bacterial Biotransformation [8]: Compound metabolized
- Bacterial Biotransformation [17]: Compound NOT metabolized
- Bacterial Biotransformation [9]: Compound NOT metabolized
- Bacterial Biotransformation [10]: Compound metabolized
- Bacterial Biotransformation [11]: Compound NOT metabolized
- Bacterial Biotransformation [12]: Compound metabolized

Structure (SMILES): COC(=O)C(c1ccccc1)C1CCCCN1 (configuration not stated) [METHYLPHENIDATE]
- Bacterial Biotransformation [2]: Compound NOT metabolized
- Bacterial Biotransformation [4]: Compound NOT metabolized
- Bacterial Biotransformation [18]: Compound NOT metabolized
- Bacterial Biotransformation [5]: Compound NOT metabolized
- Bacterial Biotransformation [6]: Compound NOT metabolized
- Bacterial Biotransformation [16]: Compound metabolized
- Bacterial Biotransformation [7]: Compound NOT metabolized
- Bacterial Biotransformation [8]: Compound NOT metabolized
- Bacterial Biotransformation [17]: Compound NOT metabolized
- Bacterial Biotransformation [9]: Compound NOT metabolized
- Bacterial Biotransformation [10]: Compound metabolized
- Bacterial Biotransformation [11]: Compound NOT metabolized
- Bacterial Biotransformation [12]: Compound NOT metabolized

Structure (SMILES): CCc1nc(N)nc(N)c1-c1ccc(Cl)cc1 [PYRIMETHAMINE]
- Bacterial Biotransformation [1]: Compound NOT metabolized
- Bacterial Biotransformation [2]: Compound NOT metabolized
- Bacterial Biotransformation [13]: Compound NOT metabolized
- Bacterial Biotransformation [4]: Compound NOT metabolized
- Bacterial Biotransformation [18]: Compound NOT metabolized
- Bacterial Biotransformation [14]: Compound NOT metabolized
- Bacterial Biotransformation [5]: Compound NOT metabolized
- Bacterial Biotransformation [19]: Compound NOT metabolized
- Bacterial Biotransformation [6]: Compound NOT metabolized
- Bacterial Biotransformation [20]: Compound NOT metabolized
- Bacterial Biotransformation [16]: Compound NOT metabolized
- Bacterial Biotransformation [7]: Compound NOT metabolized
- Bacterial Biotransformation [8]: Compound NOT metabolized
- Bacterial Biotransformation [17]: Compound NOT metabolized
- Bacterial Biotransformation [9]: Compound NOT metabolized
- Bacterial Biotransformation [10]: Compound NOT metabolized
- Bacterial Biotransformation [11]: Compound NOT metabolized
- Bacterial Biotransformation [12]: Compound NOT metabolized

Structure (SMILES): CCC(=O)NCC[C@@H]1CCc2ccc3c(c21)CCO3 [RAMELTEON]
- Bacterial Biotransformation [1]: Compound NOT metabolized
- Bacterial Biotransformation [2]: Compound NOT metabolized
- Bacterial Biotransformation [13]: Compound metabolized
- Bacterial Biotransformation [4]: Compound metabolized
- Bacterial Biotransformation [14]: Compound metabolized
- Bacterial Biotransformation [15]: Compound NOT metabolized
- Bacterial Biotransformation [6]: Compound metabolized
- Bacterial Biotransformation [20]: Compound metabolized
- Bacterial Biotransformation [16]: Compound NOT metabolized
- Bacterial Biotransformation [7]: Compound NOT metabolized
- Bacterial Biotransformation [8]: Compound metabolized
- Bacterial Biotransformation [17]: Compound NOT metabolized
- Bacterial Biotransformation [9]: Compound metabolized
- Bacterial Biotransformation [10]: Compound NOT metabolized
- Bacterial Biotransformation [11]: Compound NOT metabolized
- Bacterial Biotransformation [12]: Compound NOT metabolized

Structure (SMILES): CCN(CC)CCNC(=O)c1cc(S(C)(=O)=O)ccc1OC [TIAPRIDE]
- Bacterial Biotransformation [1]: Compound NOT metabolized
- Bacterial Biotransformation [2]: Compound NOT metabolized
- Bacterial Biotransformation [3]: Compound NOT metabolized
- Bacterial Biotransformation [13]: Compound NOT metabolized
- Bacterial Biotransformation [18]: Compound NOT metabolized
- Bacterial Biotransformation [14]: Compound NOT metabolized
- Bacterial Biotransformation [5]: Compound NOT metabolized
- Bacterial Biotransformation [15]: Compound NOT metabolized
- Bacterial Biotransformation [19]: Compound NOT metabolized
- Bacterial Biotransformation [20]: Compound NOT metabolized
- Bacterial Biotransformation [7]: Compound NOT metabolized
- Bacterial Biotransformation [8]: Compound NOT metabolized
- Bacterial Biotransformation [9]: Compound NOT metabolized
- Bacterial Biotransformation [10]: Compound NOT metabolized
- Bacterial Biotransformation [11]: Compound NOT metabolized
- Bacterial Biotransformation [12]: Compound NOT metabolized

Structure (SMILES): Cc1ccc(/C(=C\CN2CCCC2)c2ccccn2)cc1 [TRIPROLIDINE]
- Bacterial Biotransformation [1]: Compound NOT metabolized
- Bacterial Biotransformation [2]: Compound NOT metabolized
- Bacterial Biotransformation [13]: Compound NOT metabolized
- Bacterial Biotransformation [4]: Compound NOT metabolized
- Bacterial Biotransformation [18]: Compound NOT metabolized
- Bacterial Biotransformation [14]: Compound NOT metabolized
- Bacterial Biotransformation [5]: Compound NOT metabolized
- Bacterial Biotransformation [15]: Compound NOT metabolized
- Bacterial Biotransformation [19]: Compound NOT metabolized
- Bacterial Biotransformation [6]: Compound NOT metabolized
- Bacterial Biotransformation [20]: Compound NOT metabolized
- Bacterial Biotransformation [7]: Compound NOT metabolized
- Bacterial Biotransformation [8]: Compound NOT metabolized
- Bacterial Biotransformation [17]: Compound NOT metabolized
- Bacterial Biotransformation [9]: Compound NOT metabolized
- Bacterial Biotransformation [10]: Compound NOT metabolized
- Bacterial Biotransformation [11]: Compound NOT metabolized
- Bacterial Biotransformation [12]: Compound NOT metabolized
